In ChEMBL document CHEMBL1909294, “Translating clinical findings into knowledge in drug safety evaluation--drug induced liver injury prediction system (DILIps)” (PLoS Comput Biol, 2011):

Columns and labels:
Hepatotoxicity [1] = tested on: Hepatotoxicity;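 as to HepSE Combined Scores: combined hepatic side effect score as listed in the training data of the Drug Induced Liver Injury Prediction System (DILIps)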;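 as to HepSE bilirubinemia: bilirubinemia hepatic side effect score drawn from the DILIps training data, a prediction system for drug-induced liver injury; call rule not given here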;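 as to HepSE cirrhosis: cirrhosis hepatic side effect score taken from the DILIps (drug-induced liver injury prediction) training set; call rule not given here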;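 as to HepSE elevated liver function tests: hepatic side effect score for raised liver function tests, as recorded in the DILIps training set used for predicting drug-induced liver injury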; as to HepSE liver disease: call rule not given here;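 as to HepSE liver fatty: hepatic side effect score for fatty liver, taken from the DILIps training set for predicting drug-induced liver injury; call rule not given here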;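 as to HepSE liver function tests abnormal: hepatic side effect score taken from the DILIps (drug-induced liver injury prediction system) training data, here covering abnormal liver function test findings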
Hepatotoxicity [2] = tested on: Hepatotoxicity; remark: listed apart in the source;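 as to HepSE bilirubinemia: bilirubinemia hepatic side effect score drawn from the DILIps training data, a prediction system for drug-induced liver injury; call rule not given here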;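 as to HepSE cirrhosis: cirrhosis hepatic side effect score taken from the DILIps (drug-induced liver injury prediction) training set; call rule not given here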;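 as to HepSE elevated liver function tests: hepatic side effect score for raised liver function tests, as recorded in the DILIps training set used for predicting drug-induced liver injury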; as to HepSE liver disease: call rule not given here;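 as to HepSE liver fatty: hepatic side effect score for fatty liver, taken from the DILIps training set for predicting drug-induced liver injury; call rule not given here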;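 as to HepSE liver function tests abnormal: hepatic side effect score taken from the DILIps (drug-induced liver injury prediction system) training data, here covering abnormal liver function test findings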
Hepatotoxicity [3] = tested on: Hepatotoxicity; remark: listed apart in the source;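 as to HepSE bilirubinemia: bilirubinemia hepatic side effect score drawn from the DILIps training data, a prediction system for drug-induced liver injury; call rule not given here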;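 as to HepSE cirrhosis: cirrhosis hepatic side effect score taken from the DILIps (drug-induced liver injury prediction) training set; call rule not given here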;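 as to HepSE elevated liver function tests: hepatic side effect score for raised liver function tests, as recorded in the DILIps training set used for predicting drug-induced liver injury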; as to HepSE liver disease: call rule not given here;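 as to HepSE liver fatty: hepatic side effect score for fatty liver, taken from the DILIps training set for predicting drug-induced liver injury; call rule not given here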;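 as to HepSE liver function tests abnormal: hepatic side effect score taken from the DILIps (drug-induced liver injury prediction system) training data, here covering abnormal liver function test findings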
Hepatotoxicity [4] = tested on: Hepatotoxicity; remark: listed apart in the source;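 as to HepSE bilirubinemia: bilirubinemia hepatic side effect score drawn from the DILIps training data, a prediction system for drug-induced liver injury; call rule not given here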;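 as to HepSE cirrhosis: cirrhosis hepatic side effect score taken from the DILIps (drug-induced liver injury prediction) training set; call rule not given here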;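 as to HepSE elevated liver function tests: hepatic side effect score for raised liver function tests, as recorded in the DILIps training set used for predicting drug-induced liver injury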; as to HepSE liver disease: call rule not given here;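 as to HepSE liver fatty: hepatic side effect score for fatty liver, taken from the DILIps training set for predicting drug-induced liver injury; call rule not given here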;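 as to HepSE liver function tests abnormal: hepatic side effect score taken from the DILIps (drug-induced liver injury prediction system) training data, here covering abnormal liver function test findings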
Hepatotoxicity [5] = tested on: Hepatotoxicity; remark: listed apart in the source; as to HepSE liver disease: call rule not given here
Hepatotoxicity [6] = tested on: Hepatotoxicity; remark: listed apart in the source; as to HepSE liver disease: call rule not given here
Hepatotoxicity [7] = tested on: Hepatotoxicity; remark: listed apart in the source
Hepatotoxicity [8] = tested on: Hepatotoxicity; remark: listed apart in the source
Hepatotoxicity [9] = tested on: Hepatotoxicity; remark: listed apart in the source
Hepatotoxicity [10] = tested on: Hepatotoxicity; remark: listed apart in the source
Hepatotoxicity [11] = tested on: Hepatotoxicity; remark: listed apart in the source
Hepatotoxicity [12] = tested on: Hepatotoxicity; remark: listed apart in the source
Hepatotoxicity [13] = tested on: Hepatotoxicity; remark: listed apart in the source
Hepatotoxicity [14] = tested on: Hepatotoxicity; remark: listed apart in the source

SMILES	HepSE_bilirubinemia (Hepatotoxicity [1])	HepSE_liver disease (Hepatotoxicity [2])	HepSE_elevated liver function tests (Hepatotoxicity [3])	HepSE_liver function tests abnormal (Hepatotoxicity [4])	HepSE_hepatitis (Hepatotoxicity [5])	HepSE_liver fatty (Hepatotoxicity [6])	HepSE_cirrhosis (Hepatotoxicity [7])	HepSE_cholelithiasis (Hepatotoxicity [8])	HepSE_Combined Scores (Hepatotoxicity [9])	HepSE_cholecystitis (Hepatotoxicity [10])	HepSE_hepatomegaly (Hepatotoxicity [11])	HepSE_hepatic failure (Hepatotoxicity [12])	HepSE_hepatic necrosis (Hepatotoxicity [13])	HepSE_jaundice (Hepatotoxicity [14])	other results
NC(=O)NO [HYDROXYUREA]	0	0	0	0	0	0	0	0	0	0	0	0	0	0	
O=C(c1ccccc1)c1ccc2n1CCC2C(=O)O (configuration not stated) [KETOROLAC]	0	0	0	0	1	0	0	0	3	0	0	1	0	1	
CCCCC[C@H](O)/C=C/[C@H]1[C@H](O)CC(=O)[C@@H]1CCCCCCC(=O)O [ALPROSTADIL]	1	0	0	0	0	0	0	0	1	0	0	0	0	0	
COC(=O)CCc1ccc(OCC(O)CNC(C)C)cc1 (configuration not stated) [ESMOLOL]	0	0	0	0	0	0	0	0	0	0	0	0	0	0	
O=C1CN(/N=C/c2ccc([N+](=O)[O-])o2)C(=O)N1 [NITROFURANTOIN]															HepSE_bilirubinemia (Hepatotoxicity [1]; Liver): 0; HepSE_liver disease (Hepatotoxicity [2]; Liver): 0; HepSE_elevated liver function tests (Hepatotoxicity [3]; Liver): 0; HepSE_liver function tests abnormal (Hepatotoxicity [4]; Liver): 0; HepSE_hepatitis (Hepatotoxicity [5]; Liver): 1; HepSE_liver fatty (Hepatotoxicity [6]; Liver): 0; HepSE_cirrhosis (Hepatotoxicity [7]; Liver): 0; HepSE_cholelithiasis (Hepatotoxicity [8]; Liver): 0; HepSE_Combined Scores (Hepatotoxicity [9]; Liver): 3; HepSE_cholecystitis (Hepatotoxicity [10]; Liver): 0; HepSE_hepatomegaly (Hepatotoxicity [11]; Liver): 0; HepSE_hepatic failure (Hepatotoxicity [12]; Liver): 0; HepSE_hepatic necrosis (Hepatotoxicity [13]; Liver): 1; HepSE_jaundice (Hepatotoxicity [14]; Liver): 1
CNCCCC12CCC(c3ccccc31)c1ccccc12 [MAPROTILINE]															HepSE_bilirubinemia (Hepatotoxicity [1]; Liver): 0; HepSE_liver disease (Hepatotoxicity [2]; Liver): 0; HepSE_elevated liver function tests (Hepatotoxicity [3]; Liver): 0; HepSE_liver function tests abnormal (Hepatotoxicity [4]; Liver): 0; HepSE_hepatitis (Hepatotoxicity [5]; Liver): 0; HepSE_liver fatty (Hepatotoxicity [6]; Liver): 0; HepSE_cirrhosis (Hepatotoxicity [7]; Liver): 0; HepSE_cholelithiasis (Hepatotoxicity [8]; Liver): 0; HepSE_Combined Scores (Hepatotoxicity [9]; Liver): 1; HepSE_cholecystitis (Hepatotoxicity [10]; Liver): 0; HepSE_hepatomegaly (Hepatotoxicity [11]; Liver): 0; HepSE_hepatic failure (Hepatotoxicity [12]; Liver): 0; HepSE_hepatic necrosis (Hepatotoxicity [13]; Liver): 0; HepSE_jaundice (Hepatotoxicity [14]; Liver): 1
CN1CCC(=C2c3ccccc3C=Cc3ccccc32)CC1 [CYPROHEPTADINE]	0	0	0	0	1	0	0	0	3	0	0	1	0	1	
C[C@]12C=CC(=O)C=C1CC[C@@H]1[C@@H]2C(=O)C[C@@]2(C)[C@H]1CC[C@]2(O)C(=O)CO [PREDNISONE]	0	0	0	0	0	0	0	0	0	0	0	0	0	0	
O=C1CC2(CCCC2)CC(=O)N1CCCCN1CCN(c2ncccn2)CC1 [BUSPIRONE]	0	0	0	0	0	0	0	0	0	0	0	0	0	0	
O=C(CO)[C@@H](O)[C@@H](O)COP(=O)(O)O	0	0	0	0	0	0	0	0	0	0	0	0	0	0	
CC(=O)[C@@]1(O)CC[C@H]2[C@@H]3C[C@H](C)C4=CC(=O)C=C[C@]4(C)[C@@]3(F)[C@@H](O)C[C@@]21C [FLUOROMETHOLONE]	0	0	0	0	0	0	0	0	0	0	0	0	0	0	
NCCc1ccc(O)c(O)c1 [DOPAMINE]															HepSE_bilirubinemia (Hepatotoxicity [1]; Liver): 0; HepSE_liver disease (Hepatotoxicity [2]; Liver): 0; HepSE_elevated liver function tests (Hepatotoxicity [3]; Liver): 0; HepSE_liver function tests abnormal (Hepatotoxicity [4]; Liver): 0; HepSE_hepatitis (Hepatotoxicity [5]; Liver): 0; HepSE_liver fatty (Hepatotoxicity [6]; Liver): 0; HepSE_cirrhosis (Hepatotoxicity [7]; Liver): 0; HepSE_cholelithiasis (Hepatotoxicity [8]; Liver): 0; HepSE_Combined Scores (Hepatotoxicity [9]; Liver): 0; HepSE_cholecystitis (Hepatotoxicity [10]; Liver): 0; HepSE_hepatomegaly (Hepatotoxicity [11]; Liver): 0; HepSE_hepatic failure (Hepatotoxicity [12]; Liver): 0; HepSE_hepatic necrosis (Hepatotoxicity [13]; Liver): 0; HepSE_jaundice (Hepatotoxicity [14]; Liver): 0
CCCCC[C@H](O)/C=C/[C@@H]1[C@H]2C/C(=C/CCCC(=O)O)O[C@H]2C[C@H]1O [EPOPROSTENOL]	0	0	0	0	0	0	0	0	1	0	0	1	0	0	
